These results are taken from publication PMC11995222, “Synthesis and Evaluation of Thiazolidinone-Isatin Hybrids for Selective Inhibition of Cancer-Related Carbonic Anhydrases” (ACS Medicinal Chemistry Letters, 2025).

Entries after “also recorded” stand apart in the source; their conditions may differ.

As usually defined, the CC50 is the concentration at which the toxic effect on the cells reaches its halfway point. A low value points to harm at low concentration.

A short description of series [1]: Cellular toxicity assay (MTT). The conditions noted are these: human, HuH-7 cells, MTT. Format: cell-based, human.
Series [2] deals with HuH-7 cells. The series is described as follows: Cellular toxicity assay (MTT). Format: cell-based, human. The conditions noted are these: HuH-7 cells, 24, 48 and 72 h, up to 100 µM.

On to `CC[C@@]1(O)C(=O)OCc2c1cc1n(c2=O)Cc2cc3ccccc3nc2-1` [Camptothecin, reference compound], for which the CC50 at 24 h in series [1] (24h) is greater than 10 µM. For the same compound, in series [1] (48h), the CC50 at 48 h worked out at 8.5 ± 0.9 µM. The compound further returned a CC50 at 72 h in series [1] (72h) of 0.5 ± 0.02 µM.

In the case of `NS(=O)(=O)c1ccc(/N=C2\S/C(=C3\C(=O)Nc4c(F)cccc43)C(=O)N2C2CC2)cc1` [compound 3h], the CC50 at 24 h in series [1] (24h) is greater than 100 µM. In addition, the viability at 24 h, 100 µM in series [1] (24h, highest concentration (100 µM), read-out: Percentage of HuH-7 cells viability at the highest compound concentration tested, 24h) is 70%. In series [1] (48h), this compound gave a CC50 at 48 h greater than 100 µM. In addition, the viability at 48 h, 100 µM in series [1] (48h, highest concentration (100 µM), read-out: Percentage of HuH-7 cells viability at the highest compound concentration tested, 48h) worked out at 60%. This compound also displayed a CC50 at 72 h in series [1] (72h) greater than 100 µM. Also, the viability at 72 h, 100 µM in series [1] (72h, highest concentration (100 µM), read-out: Percentage of HuH-7 cells viability at the highest compound concentration tested, 72h) was 60%. For the same compound, in series [2], the “toxicity (in words)” value is listed as “weak toxicity; also recorded: nontoxic”.
